Test results taken from patent publication US20250381179A1, “CHROMAN-BASED COMPOUNDS FOR TREATING CANCER” (priority 2024, published 2025).

Assay: Phase 1 study: safety and tolerability (TEAEs, NCI CTCAE v5.0)
Experimental: The study employed an open-label, 3+3 design, with the option of adding backfill patients to each cohort cleared and deemed safe. […] Tumor responses were assessed every 2 cycles using RECIST v1.1 criteria. […] The study also involves an ongoing dose escalation study where participants receive 100 mg, 200 mg, 300 mg, 400 mg, and 600 mg once daily (QD) dose levels.
Safety was assessed through the analysis of the reported incidence of treatment-emergent AEs. Treatment-emergent AEs are those with an onset on or after the initiation of therapy and will be graded according to NCI CTCAE Version 5.0. Other safety endpoints, including laboratory results, vital signs, and ECG findings, were summarized for all patients in the Safety set.

## O=C1CC[C@H](N2Cc3cc(N4CCN(CC5CCN(c6ccc([C@@H]7c8ccc(O)cc8OC[C@@H]7c7ccccc7)cc6F)CC5)CC4)ccc3C2=O)C(=O)N1 [compound (1-g), (S)-3-(5-(4-((1-(2-fluoro-4-((3S,4R)-7-hydroxy-3-phenylchroman-4-yl)phenyl)piperidin-4-yl)methyl)piperazin-1-yl)-1-oxoisoindolin-2-yl)piperidine-2,6-dione]
200 mg QD (N = 12)
  TEAE: Urinary Tract Infection: 1 (8.3) n (%)
  TEAE: Vaginal Haemorrhage: 0 n (%)
  TEAE: Vomiting: 1 (8.3) n (%)
  related TEAE: Alopecia: 0 n (%)
  related TEAE: Arthralgia: 1 (8.3) n (%)
  related TEAE: Constipation: 0 n (%)
  related TEAE: Diarrhea: 0 n (%)
  related TEAE: Dysgeusia: 0 n (%)
  related TEAE: Eructation: 0 n (%)
  related TEAE: Fatigue: 1 (8.3) n (%)
  related TEAE: Flatulence: 0 n (%)
  related TEAE: Hot Flush: 1 (8.3) n (%)
  related TEAE: Hyperhidrosis: 0 n (%)
  related TEAE: Nail Disorder: 0 n (%)
  related TEAE: Nausea: 0 n (%)
  related TEAE: Neutrophil Count Decreased: 0 n (%)
  related TEAE: Platelet Count Decreased: 0 n (%)
  related TEAE: Tremor: 0 n (%)
  related TEAE: Vomiting: 0 n (%)
300 mg QD (N = 11)
  Patients with Any Compound (1-g) related TEAE: 5 (45.5) n (%)
  Patients with Any TEAE: 8 (72.7) n (%)
  TEAE: Abdominal Distension: 1 (9.1) n (%)
  TEAE: Abdominal Pain: 0 n (%)
  TEAE: Acute Kidney Injury: 1 (9.1) n (%)
  TEAE: Adrenal Insufficiency: 0 n (%)
  TEAE: Alopecia: 0 n (%)
  TEAE: Anaemia: 1 (9.1) n (%)
  TEAE: Anxiety: 1 (9.1) n (%)
  TEAE: Arthralgia: 0 n (%)
  TEAE: Axillary Vein Thrombosis: 0 n (%)
  TEAE: Back Pain: 1 (9.1) n (%)
  TEAE: Basal Cell Carcinoma: 0 n (%)
  TEAE: Breast Pain: 0 n (%)
  TEAE: Confusional State: 0 n (%)
  TEAE: Constipation: 1 (9.1) n (%)
  TEAE: Cough: 0 n (%)
  TEAE: Covid-19 Pneumonia: 0 n (%)
  TEAE: Dehydration: 1 (9.1) n (%)
  TEAE: Diarrhoea: 1 (9.1) n (%)
  TEAE: Dizziness: 1 (9.1) n (%)
  TEAE: Dysgeusia: 0 n (%)
  TEAE: Dyspepsia: 0 n (%)
  TEAE: Dyspnoea: 1 (9.1) n (%)
  TEAE: Dysuria: 1 (9.1) n (%)
  TEAE: Eructation: 0 n (%)
  TEAE: Fall: 0 n (%)
  TEAE: Fatigue: 1 (9.1) n (%)
  TEAE: Flatulence: 1 (9.1) n (%)
  TEAE: Fracture: 0 n (%)
  TEAE: Fungal Infection: 1 (9.1) n (%)
  TEAE: Haematoma: 1 (9.1) n (%)
  TEAE: Hot Flush: 2 (18.2) n (%)
  TEAE: Hyperglycaemia: 0 n (%)
  TEAE: Hyperhidrosis: 0 n (%)
  TEAE: Hypokalaemia: 1 (9.1) n (%)
  TEAE: Hypotension: 0 n (%)
  TEAE: Influenza Like Illness: 0 n (%)
  TEAE: Insomnia: 0 n (%)
  TEAE: Lower Respiratory Tract Congestion: 0 n (%)
  TEAE: Lymphocyte Count Decreased: 0 n (%)
  TEAE: Muscle Spasm: 0 n (%)
  TEAE: Muscular Weakness: 0 n (%)
  TEAE: Musculoskeletal Stiffness: 0 n (%)
  TEAE: Nail Disorder: 0 n (%)
  TEAE: Nasal Congestion: 0 n (%)
  TEAE: Nausea: 4 (36.4) n (%)
  TEAE: Neutrophil Count Decreased: 1 (9.1) n (%)
  TEAE: Oedema Peripheral: 1 (9.1) n (%)
  TEAE: Ophthalmic Migraine: 0 n (%)
  TEAE: Oral Pain: 1 (9.1) n (%)
  TEAE: Pain In Extremity: 0 n (%)
  TEAE: Pharyngitis: 0 n (%)
  TEAE: Platelet Count Decreased: 1 (9.1) n (%)
  TEAE: Pleural Effusion: 1 (9.1) n (%)
  TEAE: Pneumonia: 0 n (%)
  TEAE: Productive Cough: 0 n (%)
  TEAE: Rash Maculo-Papular: 0 n (%)
  TEAE: Rhinitis Allergic: 1 (9.1) n (%)
  TEAE: Rib Fracture: 0 n (%)
  TEAE: Seizure: 0 n (%)
  TEAE: Sepsis: 0 n (%)
  TEAE: Tremor: 1 (9.1) n (%)
  TEAE: Upper Respiratory Tract Infection: 1 (9.1) n (%)
  TEAE: Urinary Tract Infection: 1 (9.1) n (%)
  TEAE: Vaginal Haemorrhage: 1 (9.1) n (%)
  TEAE: Vomiting: 1 (9.1) n (%)
  related TEAE: Alopecia: 0 n (%)
  related TEAE: Arthralgia: 0 n (%)
  related TEAE: Constipation: 1 (9.1) n (%)
  related TEAE: Diarrhea: 1 (9.1) n (%)
  related TEAE: Dysgeusia: 0 n (%)
  related TEAE: Eructation: 0 n (%)
  related TEAE: Fatigue: 1 (9.1) n (%)
  related TEAE: Flatulence: 0 n (%)
  related TEAE: Hot Flush: 2 (18.2) n (%)
  related TEAE: Hyperhidrosis: 0 n (%)
  related TEAE: Nail Disorder: 0 n (%)
  related TEAE: Nausea: 3 (27.3) n (%)
  related TEAE: Neutrophil Count Decreased: 0 n (%)
  related TEAE: Platelet Count Decreased: 0 n (%)
  related TEAE: Tremor: 0 n (%)
  related TEAE: Vomiting: 1 (9.1) n (%)
400 mg QD (N = 6)
  Patients with Any Compound (1-g) related TEAE: 3 (50.0) n (%)
  Patients with Any TEAE: 4 (66.7) n (%)
  TEAE: Abdominal Distension: 0 n (%)
  TEAE: Abdominal Pain: 0 n (%)
  TEAE: Acute Kidney Injury: 0 n (%)
  TEAE: Adrenal Insufficiency: 0 n (%)
  TEAE: Alopecia: 1 (16.7) n (%)
  TEAE: Anaemia: 0 n (%)
  TEAE: Anxiety: 0 n (%)
  TEAE: Arthralgia: 0 n (%)
  TEAE: Axillary Vein Thrombosis: 0 n (%)
  TEAE: Back Pain: 0 n (%)
  TEAE: Basal Cell Carcinoma: 0 n (%)
  TEAE: Breast Pain: 0 n (%)
  TEAE: Confusional State: 0 n (%)
  TEAE: Constipation: 1 (16.7) n (%)
  TEAE: Cough: 0 n (%)
  TEAE: Covid-19 Pneumonia: 0 n (%)
  TEAE: Dehydration: 0 n (%)
  TEAE: Diarrhoea: 1 (16.7) n (%)
  TEAE: Dizziness: 0 n (%)
  TEAE: Dysgeusia: 1 (16.7) n (%)
  TEAE: Dyspepsia: 0 n (%)
  TEAE: Dyspnoea: 1 (16.7) n (%)
  TEAE: Dysuria: 0 n (%)
  TEAE: Eructation: 1 (16.7) n (%)
  TEAE: Fall: 0 n (%)
  TEAE: Fatigue: 2 (33.3) n (%)
  TEAE: Flatulence: 1 (16.7) n (%)
  TEAE: Fracture: 0 n (%)
  TEAE: Fungal Infection: 0 n (%)
  TEAE: Haematoma: 0 n (%)
  TEAE: Hot Flush: 0 n (%)
  TEAE: Hyperglycaemia: 0 n (%)
  TEAE: Hyperhidrosis: 0 n (%)
  TEAE: Hypokalaemia: 0 n (%)
  TEAE: Hypotension: 1 (16.7) n (%)
  TEAE: Influenza Like Illness: 0 n (%)
  TEAE: Insomnia: 1 (16.7) n (%)
  TEAE: Lower Respiratory Tract Congestion: 0 n (%)
  TEAE: Lymphocyte Count Decreased: 0 n (%)
  TEAE: Muscle Spasm: 1 (16.7) n (%)
  TEAE: Muscular Weakness: 1 (16.7) n (%)
  TEAE: Musculoskeletal Stiffness: 0 n (%)
  TEAE: Nail Disorder: 1 (16.7) n (%)
  TEAE: Nasal Congestion: 0 n (%)
